Legend:
Details in all cases: 72 h
[1] = system: SHI-1; assay: cell viability (% survival relative to DMSO control, bortezomib = 0%); higher = less cytotoxic
In short: (§1)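 Reported values are percent survival from duplicate wells, averaged. Fifteen myeloid leukaemia cell lines were treated in 384-well plates with compounds at 1, 10, 100, 1000 or 10000 nM for 72 h at 37 °C in 5% CO2. Signals from CellTiter-Glo luminescence were scaled with vehicle as 100% and a 10 µM positive control as 0%.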

[2] = system: HEL; assay: as above
In short: as §1

[3] = system: KU-812; assay: as above
In short: as §1

[4] = system: KG-1; assay: as above
In short: as §1

[5] = system: NOMO-1; assay: as above
In short: as §1

[6] = system: KCL-22; assay: as above
In short: as §1

[7] = system: LAMA-84; assay: as above
In short: as §1

[8] = system: MV4-11; assay: as above
In short: as §1

[9] = system: THP-1; assay: as above
In short: as §1

[10] = system: BV-173; assay: as above
In short: as §1

[11] = system: ML-2; assay: as above
In short: as §1

[12] = system: Mono-Mac-6; assay: as above
In short: as §1

[13] = system: MOLM-13; assay: as above
In short: as §1

[14] = system: HL-60; assay: as above
In short: as §1

[15] = system: SHI-1
In short: (§2)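 Fifteen myeloid leukaemia lines in RPMI 1640 were treated for 72 h at 37 °C and 5% CO2 with five tenfold doses from 1 to 10,000 nM, in duplicate. ATP luminescence was normalised to vehicle and to a positive control at 10 µM, then fitted with a four-parameter log-logistic model. The IC50 came from these fits.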

[16] = system: HEL
In short: as §2

[17] = system: K-562
In short: as §2

[18] = system: KU-812
In short: as §2

[19] = system: KG-1
In short: as §2

[20] = system: NOMO-1
In short: as §2

[21] = system: KCL-22
In short: as §2

[22] = system: LAMA-84
In short: as §2

[23] = system: MV4-11
In short: as §2

[24] = system: THP-1
In short: as §2

[25] = system: BV-173
In short: as §2

[26] = system: ML-2
In short: as §2

[27] = system: Mono-Mac-6
In short: as §2

[28] = system: MOLM-13
In short: as §2

[29] = system: HL-60
In short: as §2

[30] = system: HL-60; assay: area under dose-response curve (viability, 1 nM-10 uM) (fraction (0-1)); higher = more sensitive
In short: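 For each screen, HL-60 cells in RPMI 1640 with 10% FBS carried either DMSO or 100 nM of one of three metabolic inhibitors while the full library was applied at five tenfold concentrations, 1–10,000 nM, in duplicate. Plates were 384-well and were kept 72 h at 37 °C, 5% CO2. Viability, measured by CellTiter-Glo, was normalised to wells with DMSO and with 10 μM proteasome inhibitor. Where area under the curve appears, it was fitted by four-parameter log-logistic models in drc and PharmacoGx.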

[31] = co-treatment: GSK2194069 100 nM
[32] = co-treatment: pictilisib 100 nM

In the case of `NCCCC(N)(C(=O)O)C(F)F` (stereo not drawn) [Difluoromethylornithine], the cell viability ([1]; 1 nM) is reported as 100%, the cell viability ([1]; 10 nM) is reported as 100% and the cell viability ([1]; 100 nM) is reported as 90.9%. It also gave a cell viability ([1]; 1000 nM) of 104%, a cell viability ([1]; 10000 nM) of 106% and a cell viability ([2]; 1 nM) of 100%. The cell viability ([2]; 10 nM) was 96.8%, the cell viability ([2]; 100 nM) was 90.1% and the cell viability ([2]; 1000 nM) was 104%. The cell viability ([2]; 10000 nM) was 95.9%, the cell viability ([3]; 1 nM) was 116% and the cell viability ([3]; 10 nM) was 96.2%. For the same compound, the cell viability ([3]; 100 nM) was 83.1%, the cell viability ([3]; 1000 nM) was 99.3% and the cell viability ([3]; 10000 nM) was 105%. It also gave a cell viability ([4]; 1 nM) of 96.1%, a cell viability ([4]; 10 nM) of 88.8% and a cell viability ([4]; 100 nM) of 90.8%. It also gave a cell viability ([4]; 1000 nM) of 95.1%, a cell viability ([4]; 10000 nM) of 105% and a cell viability ([5]; 1 nM) of 99.5%. For the same compound, the cell viability ([5]; 10 nM) was 91.5%, the cell viability ([5]; 100 nM) was 102% and the cell viability ([5]; 1000 nM) was 95.6%. It also gave a cell viability ([5]; 10000 nM) of 99.7%, a cell viability ([6]; 1 nM) of 111% and a cell viability ([6]; 10 nM) of 84.4%. The cell viability ([6]; 100 nM) was 88.1%, the cell viability ([6]; 1000 nM) was 95% and the cell viability ([6]; 10000 nM) was 101%. The cell viability ([7]; 1 nM) was 107%, the cell viability ([7]; 10 nM) was 99.2% and the cell viability ([7]; 100 nM) was 91.8%. It also gave a cell viability ([7]; 1000 nM) of 102%, a cell viability ([7]; 10000 nM) of 110% and a cell viability ([8]; 1 nM) of 93.8%. The cell viability ([8]; 10 nM) was 98.9%, the cell viability ([8]; 100 nM) was 81.3% and the cell viability ([8]; 1000 nM) was 85.5%. For the same compound, the cell viability ([8]; 10000 nM) was 109%, the cell viability ([9]; 1 nM) was 96.5% and the cell viability ([9]; 10 nM) was 95.6%. It also gave a cell viability ([9]; 100 nM) of 98.9%, a cell viability ([9]; 1000 nM) of 100% and a cell viability ([9]; 10000 nM) of 104%. The cell viability ([10]; 1 nM) was 97.1%, the cell viability ([10]; 10 nM) was 91.2% and the cell viability ([10]; 100 nM) was 96.8%. It also gave a cell viability ([10]; 1000 nM) of 95.2%, a cell viability ([10]; 10000 nM) of 105% and a cell viability ([11]; 1 nM) of 93.5%. The cell viability ([11]; 10 nM) was 79.1%, the cell viability ([11]; 100 nM) was 93.4% and the cell viability ([11]; 1000 nM) was 92.1%. For the same compound, the cell viability ([11]; 10000 nM) was 96.5%, the cell viability ([12]; 1 nM) was 98.2% and the cell viability ([12]; 10 nM) was 92.7%. The cell viability ([12]; 100 nM) was 94.2%, the cell viability ([12]; 1000 nM) was 98.5% and the cell viability ([12]; 10000 nM) was 93.3%. It also gave a cell viability ([13]; 1 nM) of 87.2%, a cell viability ([13]; 10 nM) of 103% and a cell viability ([13]; 100 nM) of 93.3%. The cell viability ([13]; 1000 nM) was 107%, the cell viability ([13]; 10000 nM) was 101% and the cell viability ([14]; 1 nM) was 93.6%. For the same compound, the cell viability ([14]; 10 nM) was 123%, the cell viability ([14]; 100 nM) was 98.7% and the cell viability ([14]; 1000 nM) was 88.8%. The cell viability ([14]; 10000 nM) was 99.5%, the “IC50 (cell viability)” value [15] was > 10 µM and the “IC50 (cell viability)” value [16] was > 10 µM. For the same compound, the “IC50 (cell viability)” value [17] was > 10 µM, the “IC50 (cell viability)” value [18] was > 10 µM and the “IC50 (cell viability)” value [19] was > 10 µM. For the same compound, the “IC50 (cell viability)” value [20] was > 10 µM, the “IC50 (cell viability)” value [21] was > 10 µM and the “IC50 (cell viability)” value [22] was > 10 µM. The “IC50 (cell viability)” value [23] was > 10 µM, the “IC50 (cell viability)” value [24] was > 10 µM and the “IC50 (cell viability)” value [25] was > 10 µM. The “IC50 (cell viability)” value [26] was > 10 µM, the “IC50 (cell viability)” value [27] was > 10 µM and the “IC50 (cell viability)” value [28] was > 10 µM. For the same compound, the “IC50 (cell viability)” value [29] was > 10 µM, the “area under dose-response curve” value ([30]; co-treatment: AZD3965 100 nM) was < 0.0301 and the “area under dose-response curve” value ([30]; co-treatment: DMSO vehicle) was < 0.0301. For the same compound, the “area under dose-response curve” value [30, 31] was < 0.0301 and the “area under dose-response curve” value [30, 32] was < 0.0301.
`O=C(NCCCCCCNC(=O)ONC1=CCCCC1)ONC1=CCCCC1` gave a cell viability ([1]; 1 nM) of 98.7%, a cell viability ([1]; 10 nM) of 103% and a cell viability ([1]; 100 nM) of 112%. The cell viability ([1]; 1000 nM) was 112%, the cell viability ([1]; 10000 nM) was 97.3% and the cell viability ([2]; 1 nM) was 90.8%. For the same compound, the cell viability ([2]; 10 nM) was 104%, the cell viability ([2]; 100 nM) was 117% and the cell viability ([2]; 1000 nM) was 113%. The cell viability ([2]; 10000 nM) was 90.9%, the cell viability ([3]; 1 nM) was 104% and the cell viability ([3]; 10 nM) was 110%. For the same compound, the cell viability ([3]; 100 nM) was 113%, the cell viability ([3]; 1000 nM) was 101% and the cell viability ([3]; 10000 nM) was 92.4%. For the same compound, the cell viability ([4]; 1 nM) was 90.4%, the cell viability ([4]; 10 nM) was 122% and the cell viability ([4]; 100 nM) was 114%. It also gave a cell viability ([4]; 1000 nM) of 92.8%, a cell viability ([4]; 10000 nM) of 90.4% and a cell viability ([5]; 1 nM) of 98.9%. The cell viability ([5]; 10 nM) was 117%, the cell viability ([5]; 100 nM) was 112% and the cell viability ([5]; 1000 nM) was 112%. The cell viability ([5]; 10000 nM) was 102%, the cell viability ([6]; 1 nM) was 106% and the cell viability ([6]; 10 nM) was 100%. For the same compound, the cell viability ([6]; 100 nM) was 115%, the cell viability ([6]; 1000 nM) was 102% and the cell viability ([6]; 10000 nM) was 94.6%. The cell viability ([7]; 1 nM) was 104%, the cell viability ([7]; 10 nM) was 103% and the cell viability ([7]; 100 nM) was 112%. It also gave a cell viability ([7]; 1000 nM) of 101%, a cell viability ([7]; 10000 nM) of 103% and a cell viability ([8]; 1 nM) of 91.1%. It also gave a cell viability ([8]; 10 nM) of 104%, a cell viability ([8]; 100 nM) of 106% and a cell viability ([8]; 1000 nM) of 100%. The cell viability ([8]; 10000 nM) was 96.3%, the cell viability ([9]; 1 nM) was 89.4% and the cell viability ([9]; 10 nM) was 114%. It also gave a cell viability ([9]; 100 nM) of 109%, a cell viability ([9]; 1000 nM) of 97.4% and a cell viability ([9]; 10000 nM) of 100%. It also gave a cell viability ([10]; 1 nM) of 89.4%, a cell viability ([10]; 10 nM) of 107% and a cell viability ([10]; 100 nM) of 114%. The cell viability ([10]; 1000 nM) was 110%, the cell viability ([10]; 10000 nM) was 95.2% and the cell viability ([11]; 1 nM) was 94.8%. It also gave a cell viability ([11]; 10 nM) of 107%, a cell viability ([11]; 100 nM) of 108% and a cell viability ([11]; 1000 nM) of 107%. The cell viability ([11]; 10000 nM) was 99.1%, the cell viability ([12]; 1 nM) was 90.6% and the cell viability ([12]; 10 nM) was 110%. For the same compound, the cell viability ([12]; 100 nM) was 103%, the cell viability ([12]; 1000 nM) was 98.8% and the cell viability ([12]; 10000 nM) was 102%. The cell viability ([13]; 1 nM) was 118%, the cell viability ([13]; 10 nM) was 97% and the cell viability ([13]; 100 nM) was 109%. The cell viability ([13]; 1000 nM) was 98.7%, the cell viability ([13]; 10000 nM) was 86% and the cell viability ([14]; 1 nM) was 106%. The cell viability ([14]; 10 nM) was 107%, the cell viability ([14]; 100 nM) was 124% and the cell viability ([14]; 1000 nM) was 111%. The cell viability ([14]; 10000 nM) was 93.8%, the “IC50 (cell viability)” value [15] was > 10 µM and the “IC50 (cell viability)” value [16] was > 10 µM. For the same compound, the “IC50 (cell viability)” value [17] was > 10 µM, the “IC50 (cell viability)” value [18] was > 10 µM and the “IC50 (cell viability)” value [19] was > 10 µM. For the same compound, the “IC50 (cell viability)” value [20] was > 10 µM, the “IC50 (cell viability)” value [21] was > 10 µM and the “IC50 (cell viability)” value [22] was > 10 µM. For the same compound, the “IC50 (cell viability)” value [23] was > 10 µM, the “IC50 (cell viability)” value [24] was > 10 µM and the “IC50 (cell viability)” value [25] was > 10 µM. For the same compound, the “IC50 (cell viability)” value [26] was > 10 µM, the “IC50 (cell viability)” value [27] was > 10 µM and the “IC50 (cell viability)” value [28] was > 10 µM. The “IC50 (cell viability)” value [29] was > 10 µM, the “area under dose-response curve” value ([30]; co-treatment: AZD3965 100 nM) was < 0.0301 and the “area under dose-response curve” value ([30]; co-treatment: DMSO vehicle) was < 0.0301. For the same compound, the “area under dose-response curve” value [30, 31] was < 0.0301 and the “area under dose-response curve” value [30, 32] was < 0.0301.
